Holding throughout (test): biochemical
The target of test [1] is wild type and amino acid substituted PPO enzyme (Amaranthus tuberculatus, UniProt Q0NZW9, F204I/F457M). The note with it: IC50 (M).
The target in test [2] is wild type and amino acid substituted PPO enzyme (Amaranthus tuberculatus, UniProt Q0NZW9, F420V/L397V). The following applies: IC50 (M).
Test [3] deals with wild type and amino acid substituted PPO enzyme (Amaranthus tuberculatus, UniProt Q0NZW9, F204I/F420V/F457M/L400A/T208S). The following applies: IC50 (M).
The target of test [4] is wild type and amino acid substituted PPO enzyme (Amaranthus tuberculatus, UniProt Q0NZW9, F204I/F457M/L400A/T208S). The following applies: IC50 (M).
Test [5] deals with wild type and amino acid substituted PPO enzyme (Amaranthus tuberculatus, UniProt Q0NZW9, F204I/F420V/F457M/R128A). The following applies: IC50 (M).
The target of test [6] is wild type and amino acid substituted PPO enzyme (Amaranthus tuberculatus, UniProt Q0NZW9, F420V/F457M/T208S). The note with it: IC50 (M).
The target of test [7] is wild type and amino acid substituted PPO enzyme (Amaranthus tuberculatus, UniProt Q0NZW9, L397D/T208S). The note with it: IC50 (M).
The target of test [8] is wild type and amino acid substituted PPO enzyme (Amaranthus tuberculatus, UniProt Q0NZW9, F420M/L397C). The following applies: IC50 (M).
In test [9] the target is wild type and amino acid substituted PPO enzyme (Amaranthus tuberculatus, UniProt Q0NZW9, F420V/L397T). The following applies: IC50 (M).
The target of test [10] is wild type and amino acid substituted PPO enzyme (Amaranthus tuberculatus, UniProt Q0NZW9, F457M/L400A). The note with it: IC50 (M).
The target in test [11] is wild type and amino acid substituted PPO enzyme (Amaranthus tuberculatus, UniProt Q0NZW5).
Sequence of wild type and amino acid substituted PPO enzyme (Amaranthus tuberculatus, UniProt Q0NZW5) (Q0NZW5 entry or part of it): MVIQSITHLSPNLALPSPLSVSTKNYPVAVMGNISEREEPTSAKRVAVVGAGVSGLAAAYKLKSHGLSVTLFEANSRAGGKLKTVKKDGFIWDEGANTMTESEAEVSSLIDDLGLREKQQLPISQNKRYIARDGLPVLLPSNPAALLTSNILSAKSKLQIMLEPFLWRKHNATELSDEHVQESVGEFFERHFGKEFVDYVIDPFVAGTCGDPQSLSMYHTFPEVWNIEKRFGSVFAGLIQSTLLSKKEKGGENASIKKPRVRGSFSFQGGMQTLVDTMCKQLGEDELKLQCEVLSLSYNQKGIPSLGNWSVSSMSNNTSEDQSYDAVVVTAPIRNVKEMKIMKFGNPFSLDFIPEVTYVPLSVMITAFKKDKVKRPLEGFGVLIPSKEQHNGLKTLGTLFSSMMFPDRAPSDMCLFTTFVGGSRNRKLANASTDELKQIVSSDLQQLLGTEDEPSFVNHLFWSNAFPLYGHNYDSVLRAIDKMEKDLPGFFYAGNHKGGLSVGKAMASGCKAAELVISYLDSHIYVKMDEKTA
For test [12], the target named is wild type and amino acid substituted PPO enzyme (Amaranthus tuberculatus, UniProt Q0NZW9, F204I/F420V/F457M). The following applies: IC50 (M).
Test [13] has as its target wild type and amino acid substituted PPO enzyme (Amaranthus tuberculatus, UniProt Q0NZW9, F204I/F420V/F457M/T208S). The following applies: IC50 (M).
Test [14] addresses wild type and amino acid substituted PPO enzyme (Amaranthus tuberculatus, UniProt Q0NZW9, F204I/F420A/F457M/L400A). The following applies: IC50 (M).
Test [15] concerns the target wild type and amino acid substituted PPO enzyme (Amaranthus tuberculatus, UniProt Q0NZW9, F420V/L397Q). The following applies: IC50 (M).
The target in test [16] is wild type and amino acid substituted PPO enzyme (Amaranthus tuberculatus, UniProt Q0NZW9, F420V/F457M). The following applies: IC50 (M).
Test [17] has as its target wild type and amino acid substituted PPO enzyme (Amaranthus tuberculatus, UniProt Q0NZW9, F420M/L397A). The following applies: IC50 (M).
For test [18], the target named is wild type and amino acid substituted PPO enzyme (Amaranthus tuberculatus, UniProt Q0NZW9, F204I/F457M/T208S). The following applies: IC50 (M).
Sequence of wild type and amino acid substituted PPO enzyme (Amaranthus tuberculatus, UniProt Q0NZW9, F204I/F457M/T208S) (Q0NZW9 1-534 F204I/T208S/F457M): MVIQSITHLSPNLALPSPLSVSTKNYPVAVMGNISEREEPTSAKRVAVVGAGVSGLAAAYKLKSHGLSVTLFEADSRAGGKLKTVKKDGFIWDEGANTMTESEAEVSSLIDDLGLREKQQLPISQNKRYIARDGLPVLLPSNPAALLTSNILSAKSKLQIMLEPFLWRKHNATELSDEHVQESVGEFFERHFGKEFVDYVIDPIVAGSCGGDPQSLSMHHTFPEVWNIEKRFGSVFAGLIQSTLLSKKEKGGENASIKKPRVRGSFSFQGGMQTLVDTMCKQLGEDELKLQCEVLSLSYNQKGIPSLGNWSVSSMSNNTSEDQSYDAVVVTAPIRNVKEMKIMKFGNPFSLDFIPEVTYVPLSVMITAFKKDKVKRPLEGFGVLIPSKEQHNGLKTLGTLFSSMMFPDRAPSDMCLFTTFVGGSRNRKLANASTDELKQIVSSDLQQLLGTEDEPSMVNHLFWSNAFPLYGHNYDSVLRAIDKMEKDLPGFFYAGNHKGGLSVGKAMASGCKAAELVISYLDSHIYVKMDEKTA
The target of test [19] is wild type and amino acid substituted PPO enzyme (Amaranthus tuberculatus, UniProt Q0NZW9, F420V/T208S). The following applies: IC50 (M).
Sequence of wild type and amino acid substituted PPO enzyme (Amaranthus tuberculatus, UniProt Q0NZW9, F420V/T208S) (Q0NZW9 1-534 T208S/F420V): as the sequence (Q0NZW9 1-534 F204I/T208S/F457M) above, with I204F, F420V, M457F counted along it
For test [20], the target named is wild type and amino acid substituted PPO enzyme (Amaranthus tuberculatus, UniProt Q0NZW9, F420M/L397D). The following applies: IC50 (M).
Sequence of wild type and amino acid substituted PPO enzyme (Amaranthus tuberculatus, UniProt Q0NZW9, F420M/L397D) (Q0NZW9 1-534 L397D/F420M): as the sequence (Q0NZW9 1-534 F204I/T208S/F457M) above, with I204F, S208T, L397D, F420M, M457F counted along it
The target in test [21] is wild type and amino acid substituted PPO enzyme (Amaranthus tuberculatus, UniProt Q0NZW9, F204I/L400A). The following applies: IC50 (M).
Test [22] has as its target wild type and amino acid substituted PPO enzyme (Amaranthus tuberculatus, UniProt Q0NZW9, F204I/L397D/T208S). The following applies: IC50 (M).
Test [23] addresses wild type and amino acid substituted PPO enzyme (Amaranthus tuberculatus, UniProt Q0NZW9, F204I/L400A/T208S). The following applies: IC50 (M).
In test [24] the target is wild type and amino acid substituted PPO enzyme (Amaranthus tuberculatus, UniProt Q0NZW9, F204I/L397D/L400A/T208S). The note with it: IC50 (M).
The target in test [25] is wild type and amino acid substituted PPO enzyme (Amaranthus tuberculatus, UniProt Q0NZW9, F204I/F420V/F457M/L400A/R128A). The following applies: IC50 (M).
Test [26] addresses wild type and amino acid substituted PPO enzyme (Amaranthus tuberculatus, UniProt Q0NZW9, F457M/T208S). The note with it: IC50 (M).
Test [27] has as its target wild type and amino acid substituted PPO enzyme (Amaranthus tuberculatus, UniProt Q0NZW9, F204I/F420V/L400A). The note with it: IC50 (M).
Test [28] deals with wild type and amino acid substituted PPO enzyme (Amaranthus tuberculatus, UniProt Q0NZW9, F420V/L397C). The following applies: IC50 (M).
Test [29] addresses wild type and amino acid substituted PPO enzyme (Amaranthus tuberculatus, UniProt Q0NZW9, F204I/F420V). The following applies: IC50 (M).
Test [30] concerns the target wild type and amino acid substituted PPO enzyme (Amaranthus tuberculatus, UniProt Q0NZW9, F420V/L397S). The following applies: IC50 (M).
Test [31] concerns the target wild type and amino acid substituted PPO enzyme (Amaranthus tuberculatus, UniProt Q0NZW9, F204I/F420V/T208S). The following applies: IC50 (M).
For test [32], the target named is wild type and amino acid substituted PPO enzyme (Amaranthus tuberculatus, UniProt Q0NZW9, F204I/T208S). The note with it: IC50 (M).
In test [33] the target is wild type and amino acid substituted PPO enzyme (Amaranthus tuberculatus, UniProt Q0NZW9, F457M/L400A/T208S). The note with it: IC50 (M).
For test [34], the target named is wild type and amino acid substituted PPO enzyme (Amaranthus tuberculatus, UniProt Q0NZW9, F420M/L397S). The note with it: IC50 (M).
The target in test [35] is wild type and amino acid substituted PPO enzyme (Amaranthus tuberculatus, UniProt Q0NZW9, L397D/R128A). The following applies: IC50 (M).
Sequence of wild type and amino acid substituted PPO enzyme (Amaranthus tuberculatus, UniProt Q0NZW9, L397D/R128A) (Q0NZW9 1-534 R128A/L397D): as the sequence (Q0NZW9 1-534 F204I/T208S/F457M) above, with R128A, I204F, S208T, L397D, M457F counted along it
Test [36] concerns the target wild type and amino acid substituted PPO enzyme (Amaranthus tuberculatus, UniProt Q0NZW9, F420M/L397V). The following applies: IC50 (M).
Test [37] has as its target wild type and amino acid substituted PPO enzyme (Amaranthus tuberculatus, UniProt Q0NZW9, F420V/R128A/T208S). The following applies: IC50 (M).

“And” between values parts separate entries of the source, which are not always exact repeats. Equal values may be shown once.

Sequence of wild type and amino acid substituted PPO enzyme (Amaranthus tuberculatus, UniProt Q0NZW9, F204I/F457M) (Q0NZW9 1-534 F204I/F457M): as the sequence (Q0NZW9 1-534 F204I/T208S/F457M) above, with S208T counted along it
Sequence of wild type and amino acid substituted PPO enzyme (Amaranthus tuberculatus, UniProt Q0NZW9, F420V/R128A/T208S) (Q0NZW9 1-534 R128A/T208S/F420V): as the sequence (Q0NZW9 1-534 F204I/T208S/F457M) above, with R128A, I204F, F420V, M457F counted along it
Sequence of wild type and amino acid substituted PPO enzyme (Amaranthus tuberculatus, UniProt Q0NZW9, F457M/T208S) (Q0NZW9 1-534 T208S/F457M): as the sequence (Q0NZW9 1-534 F204I/T208S/F457M) above, with I204F counted along it
Sequence of wild type and amino acid substituted PPO enzyme (Amaranthus tuberculatus, UniProt Q0NZW9, F420V/L397Q) (Q0NZW9 1-534 L397Q/F420V): as the sequence (Q0NZW9 1-534 F204I/T208S/F457M) above, with I204F, S208T, L397Q, F420V, M457F counted along it

One may read the IC50 as the point on the concentration scale where inhibition reaches its midpoint. Higher therefore signals weaker potency in that assay. `C#CCN1C(=O)C(F)(F)Oc2cc(F)c(-n3c(=O)n(C)c(=S)n(C)c3=O)cc21`: the IC50 was determined as 7.52e-11 M in [1]; 1.21e-08 M in test [2]; 9.24e-08 M in [3]; 2.88e-11 M in test [4]; 4.63e-08 M in test [5]; 3.41e-09 M in [6]. Further, the IC50 in [7] came out at 1.25e-10 M; in test [8] it was 1.79e-09 M; in test [9] it was 1.31e-08 M; in [10], 1.35e-11 M; in [11], 2.12 nM; in test [12], 2.1e-09 M. In addition, the IC50 in test [13] is 4.72e-09 M; in test [14] it was 3.69e-08 M; in test [15] it was 1.01e-07 M; in test [16], 1.02e-09 M; in [17], 4.53e-09 M; in test [18], 4.21e-11 M and 1.7e-10 M. Also, the IC50 came out at 2.34e-09 M in test [19]; 2.95e-08 M in test [20]; 4.57e-11 M in test [21]; 5.52e-11 M in test [22]; 2.64e-11 M in test [23]; 2.38e-09 M in [24]. The half-inhibitory concentration (IC50) in [25] worked out at 4.05e-07 M; in [26] it was 1.95e-10 M; in [27], 8.23e-08 M; in test [28], 5.54e-08 M; in test [29] it was 4.69e-09 M; in test [30] it was 4.26e-08 M. Also, the IC50 in test [31] turned out to be 3.87e-09 M; in [32] it was 1.29e-10 M; in [33], 9.68e-12 M; in test [34], 3.33e-09 M; in test [35], 5.9e-09 M; in test [36], 1.05e-09 M. In test [37], this compound had an IC50 of 1.25e-08 M.
On to `CC(C)N(C)S(=O)(=O)NC(=O)c1cc(-n2c(=O)cc(C(F)(F)F)n(C)c2=O)c(F)cc1Cl` [saflufenacil], for which the IC50 was 1.89e-11 M in test [1]; 4.08e-07 M in test [7]; 1600 nM in test [11]; > 1e-05 M in [15]; 5.11e-11 M in [18]; 8.48e-07 M in [19]. Besides, the IC50 in test [20] is > 1e-05 M; in test [26], 1.02e-10 M; in test [32], 5.89e-11 M; in [35], ≥ 1e-05 M; in test [37] it was > 1e-05 M.

The values are drawn from patent US12686873B2, “Plants having increased tolerance to herbicides” (priority 2012, dated 2026).
